# Assays:
# [1] = biological target: T1, Protein tyrosine phosphatase 1B (PTP1B) (Homo sapiens, UniProt P18031); assay: ligand fishing with E. coli surface-displayed PTP1B, HPLC readout, with control cells; not fished by MNPs-PTP1B; type: cell-based
# T1 construct: gene PTPN1
# T1 sequence (P18031 1-435): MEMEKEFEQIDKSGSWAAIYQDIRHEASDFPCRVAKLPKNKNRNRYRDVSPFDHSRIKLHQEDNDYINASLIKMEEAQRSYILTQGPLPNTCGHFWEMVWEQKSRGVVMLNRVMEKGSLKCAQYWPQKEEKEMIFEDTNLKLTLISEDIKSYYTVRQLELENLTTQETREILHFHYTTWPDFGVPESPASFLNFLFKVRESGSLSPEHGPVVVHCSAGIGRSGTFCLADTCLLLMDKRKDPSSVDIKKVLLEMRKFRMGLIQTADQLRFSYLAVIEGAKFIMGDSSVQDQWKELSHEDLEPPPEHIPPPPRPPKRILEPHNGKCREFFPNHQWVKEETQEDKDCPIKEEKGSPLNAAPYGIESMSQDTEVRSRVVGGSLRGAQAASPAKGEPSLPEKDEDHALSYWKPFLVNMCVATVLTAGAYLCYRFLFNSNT
# [2] = biological target: T1, Protein tyrosine phosphatase 1B (PTP1B); assay: pNPP phosphatase inhibition assay with Lineweaver-Burk kinetics (Ki […], Kis […]); also fished out by PTP1B displayed on E. coli; type: biochemical
Compound,"ligand fishing with E. coli surface-displayed PTP1B, HPLC readout, with control [1]",IC50 [2]
"C[C@@H]1O[C@@H](OC[C@H]2O[C@@H](Oc3c(-c4ccc(O)c(O)c4)oc4cc(O)cc(O)c4c3=O)[C@H](O)[C@@H](O)[C@@H]2O)[C@H](O)[C@H](O)[C@H]1O [II, rutin]","only EC-PTP1B extracted the positive compound rutin, indicating that EC-PTP1B was efficient for fishing the enzyme ligand",
O=C(/C=C/c1ccc(O)c2c1[C@H](C(=O)O[C@H](Cc1ccc(O)c(O)c1)C(=O)O)[C@@H](c1ccc(O)c(O)c1)O2)O[C@H](Cc1ccc(O)c(O)c1)C(=O)O [salvianolic acid B],,23.3 µM
